Measured values reported in patent US20120004245A1, “COMPOUNDS FOR THE TREATMENT OF POSTERIOR SEGMENT DISORDERS AND DISEASES” (ALCON RESEARCH, LTD., priority 2010, published 2012).

What was measured:
[1] = system: preretinal neovascularization; test: Rat oxygen-induced retinopathy (OIR) model, prevention; assay type: in vivo; conditions: for ED50 (nmole) / ED50 (μg) / Potency: Rat OIR Prevention; for ED50 (nmole) / ED50 (μg): dose-response, single ivt injection; for Potency: relative to reference RTKi (=1); for Efficacy (0.1%) Median-value / Efficacy (1%) Median-value: rat OIR prevention, vs vehicle, *P<0.05; for Efficacy (0.1%) Median-value: single ivt injection of 0.1% suspension; for Efficacy (1%) Median-value: single ivt injection of 1% suspension
Source text: (§1) METHODS: Pregnant Sprague-Dawley rats were received at 14 days gestation and subsequently gave birth on Day 22±1 of gestation. Immediately following parturition, pups were pooled and randomized into separate litters (n=17 pups/litter), placed into separate shoebox cages inside oxygen delivery chamber, and subjected to an oxygen-exposure profile from Day 0-14 postpartum. Litters were then placed into room air from Day 14/0 through Day 14/6 (days 14-20 postpartum). For prevention studies, each pup was randomly assigned into various treatment groups on Day 14/0. For those randomized into an injection treatment group: one eye received a 5 μl intravitreal injection of between 0.01%-1% of a RTKi and the contralateral eye received a 5 μl intravitreal injection of vehicle. At Day 14/6 (20 days postpartum), all animals were euthanized. For regression studies, each pup was randomly assigned as an oxygen-exposed control or into various treatment groups on […]. For those randomized into an injection treatment group: one eye received a 5 μl intravitreal injection of between 0.01%-1% RTKi and the contralateral eye received a 5 μl intravitreal injection of vehicle. At Day 14/7 (21 days postpartum), all animals were euthanized. Immediately following euthanasia, retinas from all rat pups were harvested, fixed in 10% neutral buffered formalin for 24 hours, subjected to ADPase staining, and fixed onto slides as whole mounts. Digital images were acquired from each retinal flat mount that was adequately prepared. Computerized image analysis was used to obtain a NV clockhour score from each readable sample. Each clockhour out of 12 total per retina was assessed for the presence or absence of preretinal NV. Statistical comparisons using median scores for NV clockhours from each treatment group were utilized in nonparametric analyses. Each noninjected pup represented one NV score by taking the average value of both eyes and was used in comparisons against each dosage group. Because the pups were randomly assigned and no difference was observed between oxygen-exposed control pups from all litters, the NV scores were combined for all treatment groups. P≦0.05 was considered statistically significant.

[2] = system: VEGF-induced retinal vascular permeability; test: VEGF-induced retinal vascular permeability in the rat, intravitreal delivery; assay type: in vivo; conditions: for Efficacy (0.1%) / Efficacy (1%): inhibition of VEGF-induced RVP vs vehicle-injected controls, *P<0.05; for Efficacy (0.1%): single ivt injection of 0.1% suspension; for Efficacy (1%): single ivt injection of 1% suspension; for ED50 (nmole) / ED50 (μg) / Potency: rat VEGF-induced RVP; for ED50 (nmole) / ED50 (μg): dose-response, single ivt injection; for Potency: relative to reference standard, * = equipotent, 95% CL encompass 1.0
Procedure: METHODS: Adult Sprague-Dawley rats were anesthetized with intramuscular ketamine/xylazine and their pupils dilated with topical cycloplegics. […] Ten μl of each compound was intravitreally injected in each treatment eye (n=5˜6 animals per group). Three days following first intravitreal injection, all animals received an intravitreal injection of 10 μl 500 ng hr VEGF in both eyes. Twenty-four hours post-injection of VEGF, intravenous infusion of 3% Evans blue dye was performed in all animals, where 50 mg/kg of Evans blue dye was injected via the lateral tail vein during general anesthesia. After the dye had circulated for 90 minutes, the rats were euthanized. The rats were then systemically perfused with balanced salt solution, and then both eyes of each rat were immediately enucleated and the retinas harvested using a surgical microscope. After measurement of the retinal wet weight, the Evans blue dye was extracted by placing the retina in a 0.2 ml formamide (Sigma) and then the homogenized and ultracentrifuged. Blood samples were centrifuged and the plasma diluted 100 fold in formamide. For both retina and plasma samples, 60 μl of supernatant was used to measure the Evans blue dye absorbance (ABS) with at 620/740 nm. The blood-retinal barrier breakdown and subsequent retinal vascular permeability as measured by dye absorbance were calculated as means+/−s.e.m. of net ABS/wet weight/plasma ABS. One way ANOVA was used to determine an overall difference between treatment means. And a test or Man-Whitney rank sum test was performed for a pair-wise comparison between treatment groups, where P<0.05 was considered significant.

[3] = system: bovine retinal endothelial cells (BRECs); test: VEGF-induced proliferation of bovine retinal endothelial cells (BrdU ELISA); assay type: cell-based; conditions: Bos taurus, Endothelial cell; 50 ng/ml VEGF, BrdU incorporation; read-out: VEGF ind BREC prolif EC50
Procedure: METHODS. […] After another 22-24 hours the cells are treated with or without 50 ng/ml VEGF media and the test compounds in the 1% FBS media. After 30 hours BrdU is then added for the final 16 hours of the incubation. All cells are then fixed and assayed with a colorimetric BrdU ELISA kit.

[4] = system: laser-induced choroidal neovascularization (CNV); test: Mouse laser-induced CNV, prevention; conditions: single ivt injection
Source text: METHODS. CNV was generated by laser-induced rupture of Bruch's membrane. […] A hand-held cover slip was applied to the cornea and used as a contact lens to aid visualization of the fundus. Three to four retinal burns were placed in randomly assigned eye (right or left eye for each mouse) using the Alcon 532 nm EyeLite laser with a slit lamp delivery system. The laser burns were used to generate a rupture in Bruch's membrane, which was indicated ophthalmoscopically by the formation of a bubble under the retina. Only mice with laser burns that produced three bubbles per eye were included in the study. Burns were typically placed at the 3, 6, 9 or 12 o'clock positions in the posterior pole of the retina, avoiding the branch retinal arteries and veins.
Each mouse was randomly assigned into one of the following treatment groups: noninjected controls, sham-injected controls, vehicle-injected mice, or one of three Compound-injected groups. Control mice received laser photocoagulation in both eyes, where one eye received a sham injection, i.e. a pars plana needle puncture. For intravitreal-injected animals, one laser-treated eye received a 2 or 5 μl intravitreal injection of 0.1%-3% of a RTKi or vehicle. For prevention studies, the intravitreal injection was performed immediately after laser photocoagulation. […] At 14 days post-laser, all mice were anesthetized and systemically perfused with fluorescein-labeled dextran. Eyes were then harvested and prepared as choroidal flat mounts with the RPE side oriented towards the observer. All choroidal flat mounts were examined using a fluorescent microscope. Digital images of the CNV were captured, where the CNV was identified as areas of hyperfluorescence within the pigmented background. Computerized image analysis was used to delineate and measure the two dimensional area of the hyperfluorescent CNV per lesion (μm^2) for the outcome measurement. The median CNV area/burn per mouse per treatment group or the mean CNV area/burn per treatment group was used for statistical analysis depending on the normality of data distribution; P<0.05 was considered significant.

[5] = system: preretinal neovascularization; test: Rat oxygen-induced retinopathy (OIR) model, regression; assay type: in vivo; conditions: for ED50 (nmole) / ED50 (μg): dose-response, single ivt injection; for Potency: relative to reference RTKi (=1)
Source text: as §1

SMILES: Cc1cc(O)cc(NC(=O)Nc2ccc(-c3cccc4[nH]nc(N)c34)cc2)c1 [III, 1-[4-(3-Amino-1H-indazol-4-yl)-phenyl]-3-(3-hydroxy-5-methyl-phenyl)-urea]
- ED50 (nmole) [1]: 15.85 nmol
- ED50 (μg) [1]: 5.92 µg
- Potency [1]: 4.03
- Efficacy (0.1%) Median-value [1]: 1.5%
- Efficacy (1%) Median-value [1]: 100%*
- Efficacy (0.1%) [2]: −96.7%
- Efficacy (1%) [2]: −316.9%
- ED50 (nmole) [2]: >80.3 nmol
- ED50 (μg) [2]: >30 µg
- Potency [2]: 0.028
- EC50 [3]: 0.45 ± 0.05 nM

SMILES: COCCOc1ccc(-c2ccc(NC(=O)Nc3cccc(C)c3)cc2)c2c(N)n[nH]c12 [IV, 1-{4-[3-Amino-7-(2-methoxy-ethoxy)-1H-indazol-4-yl]-phenyl}-3-m-tolyl-urea]
- Prevention Efficacy ([4]; 2 μg/0.1%): 2 μg/0.1% = 1.1%
- Prevention Efficacy ([4]; 6 μg/0.3%): 6 μg/0.3% = 13.9%
- Prevention Efficacy ([4]; 20 μg/1.0%, * significant vs vehicle-injected controls): 20 μg/1.0% = 49.7%*
- ED50 (nmole) [1]: 13.23 nmol
- ED50 (μg) [1]: 5.71 µg
- Potency [1]: 4.2
- Efficacy (0.1%) Median-value [1]: 100%*
- Efficacy (1%) Median-value [1]: 100%*
- Efficacy (0.1%) [2]: 73.9%*
- Efficacy (1%) [2]: −148.2%
- EC50 [3]: 0.1 ± 0.01 nM

SMILES: Cc1cccc(NC(=O)Nc2ccc(-c3csc4ccnc(N)c34)cc2)c1 [V, 1-[4-(4-Amino-thieno[3,2-c]pyridin-3-yl)-phenyl]-3-m-tolyl-urea]
- ED50 (nmole) [1]: 24.11 nmol
- ED50 (μg) [1]: 9.03 µg
- Potency [1]: 1.94
- Efficacy (0.1%) Median-value [1]: 16.9%
- Efficacy (1%) Median-value [1]: 100%*
- Efficacy (0.1%) [2]: 64.0%
- Efficacy (1%) [2]: 40.4%
- ED50 (nmole) [2]: 3.8^ nmole
- ED50 (μg) [2]: 1.42 µg
- Potency [2]: 1.38*
- EC50 [3]: 1.57 ± 1.24 nM

SMILES: Cc1cccc(NC(=O)Nc2ccc(-c3csc4c(-c5ccncc5)cnc(N)c34)cc2)c1 [VI, 1-[4-(4-Amino-7-pyridin-4-yl-thieno[3,2-c]pyridin-3-yl)-phenyl]-3-m-tolyl-urea]
- ED50 (nmole) [1]: 13.31 nmol
- ED50 (μg) [1]: 6.01 µg
- Potency [1]: 3.86
- Efficacy (0.1%) Median-value [1]: 35.7%
- Efficacy (1%) Median-value [1]: 88.4* %
- ED50 (nmole) [5]: 39.46 nmol
- ED50 (μg) [5]: 17.82 µg
- Potency [5]: 1.75
- Efficacy (0.1%) [2]: 106.5%*
- Efficacy (1%) [2]: 70.6%*
- EC50 [3]: 0.07 ± 0.069 nM

SMILES: Cc1cccc(NC(=O)Nc2ccc(-c3csc4c(-c5cccnc5)cnc(N)c34)cc2)c1 [VII, 1-[4-(4-Amino-7-pyridin-3-yl-thieno[3,2-c]pyridin-3-yl)-phenyl]-3-m-tolyl-urea]
- ED50 (nmole) [1]: 15.74 nmol
- ED50 (μg) [1]: 7.11 µg
- Potency [1]: 3.23
- Efficacy (0.1%) Median-value [1]: 9.6%
- Efficacy (1%) Median-value [1]: 100* %
- ED50 (nmole) [5]: 20.86 nmol
- ED50 (μg) [5]: 9.42 µg
- Potency [5]: 2.49
- Efficacy (0.1%) [2]: 84%*
- Efficacy (1%) [2]: 73.5%*
- ED50 (nmole) [2]: 5.47 nmol
- ED50 (μg) [2]: 2.47 µg
- Potency [2]: 0.621*
- EC50 [3]: 0.11 ± 0.086 nM
